This note sets out measurements from ChEMBL document CHEMBL1126135, “N-(1-oxododecyl)-4 alpha,10-dimethyl-8-aza-trans-decal-3 beta-ol: a potent competitive inhibitor of 2,3-oxidosqualene cyclase” (J Med Chem, 1992).

The subject of one assay is HepG2. Nature of the assay: Compound was tested for inhibition of cholesterol biosynthesis in HepG2 cells from [14C]- acetate. The format is functional, cell-based. The following applies: Homo sapiens.
The target of the next assay is T1, Lanosterol synthase (Rattus norvegicus, UniProt P48450).
T1 sequence (P48450 whole entry): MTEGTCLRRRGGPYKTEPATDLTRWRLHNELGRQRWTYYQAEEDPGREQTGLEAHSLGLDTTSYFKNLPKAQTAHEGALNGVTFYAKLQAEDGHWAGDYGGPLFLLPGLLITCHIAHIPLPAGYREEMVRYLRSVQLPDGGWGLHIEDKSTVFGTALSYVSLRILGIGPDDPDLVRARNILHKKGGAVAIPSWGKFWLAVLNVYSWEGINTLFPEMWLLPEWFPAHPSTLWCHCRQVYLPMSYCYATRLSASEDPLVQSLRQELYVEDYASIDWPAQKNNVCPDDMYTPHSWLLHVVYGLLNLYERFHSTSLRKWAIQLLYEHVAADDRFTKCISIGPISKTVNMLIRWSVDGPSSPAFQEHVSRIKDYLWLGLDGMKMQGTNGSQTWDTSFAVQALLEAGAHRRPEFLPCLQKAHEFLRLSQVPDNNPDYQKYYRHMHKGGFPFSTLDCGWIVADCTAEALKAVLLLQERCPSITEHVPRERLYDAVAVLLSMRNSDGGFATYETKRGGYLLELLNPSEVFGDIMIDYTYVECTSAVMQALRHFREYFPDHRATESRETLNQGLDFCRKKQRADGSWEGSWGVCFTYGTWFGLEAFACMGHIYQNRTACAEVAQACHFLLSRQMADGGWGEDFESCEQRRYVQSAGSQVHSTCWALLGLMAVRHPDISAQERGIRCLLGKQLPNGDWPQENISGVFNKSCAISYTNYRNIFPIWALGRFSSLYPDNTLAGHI
Briefly: Inhibitory activity against Oxidosqualene-lanosterol cyclase enzyme obtained from rat liver; d = in a microsomal assay fails to inhibit OSC (Oxidosqualene cyclase). The format is microsomes, Microsome.

Regarding `CCCCCCCCCCCC[S+]([O-])N1CC[C@H]2[C@H](C)[C@@H](O)CC[C@]2(C)C1` (stereo not given in full), the IC50 in the assay on HepG2 is 2800 nM.

`CCCCCCCCCCCCS(=O)(=O)N1CC[C@H]2[C@H](C)[C@@H](O)CC[C@]2(C)C1` showed an IC50 with HepG2 of 52000 nM. This IC50 lies about 19-fold higher than the previous one.

Take `CCCCCCCCCCCC(=S)N1CC[C@H]2[C@H](C)[C@@H](O)CC[C@]2(C)C1`: in the assay on HepG2, 2000 nM corresponded to half-maximal inhibition (IC50). This IC50 lies about 26-fold lower than the previous one.

The compound `CCCCCCCCCCCC(=O)N1CC[C@H]2[C@H](C)[C@@H](O)CC[C@]2(C)C1` returned an IC50 in the assay with HepG2 of 700 nM.

With `CC(C)CCCC(C)CCCC(C)N1CC[C@H]2[C@H](C)[C@@H](O)CC[C@]2(C)C1` (stereo not given in full), the IC50 in the assay with HepG2 came out at 70 nM.

`CCCCCCCCCCCCN1CC[C@H]2[C@H](C)[C@@H](O)CC[C@]2(C)C1` had an IC50 in the assay on HepG2 of 10 nM. Compared with the last compound, the IC50 is about 7-fold lower.

Consider `CC1(C)[C@@H](O)CC[C@]2(C)CCCC[C@@H]12`, for which half-maximal inhibition in the assay on HepG2 (IC50) was put at 28000 nM.

In the case of `CC(=O)N1CC[C@H]2[C@H](C)[C@@H](O)CC[C@]2(C)C1`, the IC50 in the assay on HepG2 is more than 100000 nM.

As for `C[C@@H]1[C@@H](O)CC[C@]2(C)CNCC[C@@H]12`, the values for the IC50 in the assay on HepG2 and against Lanosterol synthase were 19000 nM and “No inhibition”, respectively.

One may read the IC50 as the point on the concentration scale where inhibition reaches its midpoint. High values mean weaker potency in that assay, low ones greater potency in that assay.
